# Laboratory results: paper PMC6514978, “Synthesis, Antibacterial Activities, Mode of Action and Acute Toxicity Studies of New Oxazolidinone-Fluoroquinolone Hybrids” (Molecules, 2019)
# Tests used:
# [1] = test system: LZD-resistant E. faecalis; assay: microbe, parasite or virus in culture; type: cell-based; details: Enterococcus faecalis
# Description: (§1) 6 standard strains and 3 clinical isolates were used to the preliminary evaluation of in vitro antibacterial activities of oxazolidinone-fluoroquinolone hybrids.
# (§2) Susceptibility testing of oxazolidinone-fluoroquinolone hybrids against various bacteria was performed by the broth microdilution method as outlined by the Clinical and Laboratory Standards Institute (CLSI). Three types of media, including cation-adjusted Mueller Hinton broth, Haemophilus Test Medium and cation-adjusted Mueller Hinton broth that contained 3%–5% lysed horse blood, were used to culture the corresponding bacteria. […] A final inoculum of 5 × 10^5 CFU/mL was used and plates were read after incubation for 16–24 h at 35 °C. […] Standard quality control strains (ATCC) were included throughout. Each determination was repeated in triplicate.
# [2] = test system: S. suis (9) clinical isolates; assay: Susceptibility of clinical isolates (MIC); type: cell-based, Streptococcus suis; details: Streptococcus suis, S. suis, 9 clinical isolates; for MIC50: read-out: MIC50; for MIC90: read-out: MIC90; for MIC: read-out: MIC Range
# Description: as §2
# [3] = test system: MRSE; assay: MIC against drug-resistant strain; type: cell-based, S. epidermidis; details: Staphylococcus epidermidis, read-out: MIC
# Description: as §1, §2
# [4] = test system: H. parasuis (34) clinical isolates; assay: Susceptibility of clinical isolates (MIC); type: cell-based, Haemophilus parasuis; details: H. parasuis, 34 clinical isolates; for MIC50 / MIC90: Glaesserella parasuis; for MIC50: read-out: MIC50; for MIC90: read-out: MIC90
# Description: as §2
# [5] = test system: S. haemolyticus (32) clinical isolates; assay: Susceptibility of clinical isolates (MIC); type: cell-based, Staphylococcus haemolyticus; details: for MIC50 / MIC90 / MIC: Staphylococcus haemolyticus, S. haemolyticus, 32 clinical isolates; for MIC50: read-out: MIC50; for MIC90: read-out: MIC90; for MIC: read-out: MIC Range
# Description: as §2
# [6] = test system: S. pneumoniae (13) clinical isolates; assay: Susceptibility of clinical isolates (MIC); type: cell-based, Streptococcus pneumoniae; details: for MIC50 / MIC90: Streptococcus pneumoniae; for MIC50: read-out: MIC50; for MIC90: read-out: MIC90
# Description: as §2
# [7] = test system: VAN and quinolone-resistant E. faecium; assay: MIC against drug-resistant strain; type: cell-based; details: Enterococcus faecium; E. faecium, VAN and quinolone-resistant; read-out: MIC
# Description: as §1, §2
# [8] = test system: CIP-resistant S. aureus; assay: MIC against drug-resistant strain; type: cell-based; details: Staphylococcus aureus; S. aureus, CIP-resistant; read-out: MIC
# Description: as §1, §2
# [9] = test system: CIP-resistant S. haemolyticus; assay: MIC against drug-resistant strain; type: cell-based; details: Staphylococcus haemolyticus; S. haemolyticus, CIP-resistant; read-out: MIC
# Description: as §1, §2
# [10] = test system: MRSA; assay: MIC against drug-resistant strain; type: cell-based; details: Staphylococcus aureus, read-out: MIC
# Description: as §1, §2
# [11] = test system: VAN and quinolone-resistant S. pneumoniae; assay: MIC against drug-resistant strain; type: cell-based; details: Streptococcus pneumoniae; S. pneumoniae, VAN and quinolone-resistant; read-out: MIC
# Description: as §1, §2
# [12] = test system: LZD and quinolone-resistant E. faecium; assay: MIC against drug-resistant strain; type: cell-based; details: Enterococcus faecium; E. faecium, LZD and quinolone-resistant; read-out: MIC
# Description: as §1, §2
# [13] = test system: E. faecalis (72) clinical isolates; assay: Susceptibility of clinical isolates (MIC); type: cell-based, Enterococcus faecalis; details: for MIC Range / MIC50 / MIC90: E. faecalis, 72 clinical isolates; for MIC50 / MIC90: Enterococcus faecalis
# Description: as §2
# [14] = test system: S. epidermidis (10) clinical isolates; assay: Susceptibility of clinical isolates (MIC); type: cell-based, Staphylococcus epidermidis; details: for MIC50 / MIC90 / MIC: Staphylococcus epidermidis, S. epidermidis, 10 clinical isolates; for MIC50: read-out: MIC50; for MIC90: read-out: MIC90; for MIC: read-out: MIC Range
# Description: as §2
# [15] = test system: S. aureus (46) clinical isolates; assay: Susceptibility of clinical isolates (MIC); type: cell-based, Staphylococcus aureus; details: for MIC50 / MIC90 / MIC: Staphylococcus aureus, S. aureus, 46 clinical isolates; for MIC50: read-out: MIC50; for MIC90: read-out: MIC90; for MIC: read-out: MIC Range
# Description: as §2
# [16] = test system: E. faecium (47) clinical isolates; assay: Susceptibility of clinical isolates (MIC); type: cell-based, Enterococcus faecium; details: for MIC Range / MIC50 / MIC90: E. faecium, 47 clinical isolates; for MIC50 / MIC90: Enterococcus faecium; for MIC50: read-out: MIC50; for MIC90: read-out: MIC90
# Description: as §2
# [17] = S. haemolyticus clinical isolates, CLSI criteria
# [18] = S. pneumoniae clinical isolates, CLSI criteria
# [19] = S. pneumoniae, 13 clinical isolates
# [20] = S. epidermidis clinical isolates, CLSI criteria
# [21] = S. aureus clinical isolates, CLSI criteria
# [22] = E. faecium clinical isolates, CLSI criteria
compound,measurement,setting,value
"COc1c(N2CCNC(C)C2)c(F)cc2c(=O)c(C(=O)O)cn(C3CC3)c12 (centres unmarked) [GAFX, gatifloxacin]",MIC,[1],0.5 µg/mL
same,MIC50,[2],≤ 0.0625 µg/mL
same,MIC90,[2],4 µg/mL
same,MIC,[2],0.0625 to 4 µg/mL
same,MIC,[3],≤ 0.0625 µg/mL
same,MIC50,[4],≤ 0.0625 µg/mL
same,MIC90,[4],1 µg/mL
same,MIC Range,[4],≤0.0625 to 1 µg/mL
same,CLSI %R (resistant),[5]; [17],3.8%
same,CLSI %S (susceptible),[5]; [17],96.2%
same,MIC50,[5],0.125 µg/mL
same,MIC90,[5],0.25 µg/mL
same,MIC,[5],0.0625 to 2 µg/mL
same,CLSI %R (resistant),[6]; [18],92.3%
same,CLSI %S (susceptible),[6]; [18],7.7%
same,MIC Range,[6]; [19],4 to 32 µg/mL
same,MIC50,[6]; [19],4 µg/mL
same,MIC90,[6]; [19],32 µg/mL
same,MIC,[7],16 µg/mL
same,MIC,[8],2 µg/mL
same,MIC,[9],2 µg/mL
same,MIC,[10],0.125 µg/mL
same,MIC,[11],> 32 µg/mL
same,MIC,[12],8 µg/mL
same,CLSI %S (susceptible),"[13]; E. faecalis clinical isolates, CLSI criteria",94.6/- %
same,MIC Range,[13],0.125 to 2 µg/mL
same,MIC50,[13],0.25 µg/mL
same,MIC90,[13],0.5 µg/mL
same,CLSI %R (resistant),[14]; [20],50.0%
same,CLSI %S (susceptible),[14]; [20],30.0%
same,MIC50,[14],1 µg/mL
same,MIC90,[14],2 µg/mL
same,MIC,[14],0.125 to 2 µg/mL
same,CLSI %R (resistant),[15]; [21],42.4%
same,CLSI %S (susceptible),[15]; [21],45.5%
same,MIC50,[15],1 µg/mL
same,MIC90,[15],2 µg/mL
same,MIC,[15],0.0625 to 2 µg/mL
same,CLSI %R (resistant),[16]; [22],13.8%
same,CLSI %S (susceptible),[16]; [22],86.2%
same,MIC Range,[16],0.25 to 8 µg/mL
same,MIC50,[16],1 µg/mL
same,MIC90,[16],8 µg/mL
"CC1CCc2c(N3CCC(O)CC3)c(F)cc3c(=O)c(C(=O)O)cn1c23 (centres unmarked) [NDFX, nadifloxacin]",MIC,[1],1 µg/mL
same,MIC50,[2],≤ 0.0625 µg/mL
same,MIC90,[2],2 µg/mL
same,MIC,[2],0.0625 to 4 µg/mL
same,MIC,[3],0.125 µg/mL
same,MIC50,[4],≤ 0.0625 µg/mL
same,MIC90,[4],1 µg/mL
same,MIC Range,[4],≤0.0625 to 1 µg/mL
same,MIC50,[5],≤ 0.0625 µg/mL
same,MIC90,[5],0.5 µg/mL
same,MIC,[5],0.0625 to 4 µg/mL
same,MIC50,[6]; [19],16 µg/mL
same,MIC90,[6]; [19],> 32 µg/mL
same,MIC,[7],32 µg/mL
same,MIC,[8],0.5 µg/mL
same,MIC,[9],4 µg/mL
same,MIC,[10],≤ 0.0625 µg/mL
same,MIC,[11],> 32 µg/mL
same,MIC,[12],16 µg/mL
same,MIC Range,[13],0.125 to 2 µg/mL
same,MIC50,[13],0.25 µg/mL
same,MIC90,[13],1 µg/mL
same,MIC50,[14],1 µg/mL
same,MIC90,[14],2 µg/mL
same,MIC,[14],0.0625 to 2 µg/mL
same,MIC50,[15],0.5 µg/mL
same,MIC90,[15],0.5 µg/mL
same,MIC,[15],0.0625 to 2 µg/mL
same,MIC Range,[16],0.5 to 16 µg/mL
same,MIC50,[16],2 µg/mL
same,MIC90,[16],8 µg/mL
